# Laboratory results: patent publication US20240238423A9, “TETRAHYDROISOQUINOLINE HETEROBIFUNCTIONAL BCL-XL DEGRADERS” (Treeline Biosciences, Inc., priority 2022, published 2024)
# Read-outs that look alike come from different tables or passages of the source.
# Target: T1, Human BCL-XL protein (N-terminal HiBiT tagged BCL-XL in HT1080 cells) (Homo sapiens, UniProt Q07817)
# T1 construct: expressed in transfected cells; host or cells: HT-1080 (ATCC CCL-121), stably transduced with lentivirus pLV-UBC-N-HiBiT-BCL-XL-PGK-puro and selected with puromycin
# T1 sequence (Q07817 whole entry): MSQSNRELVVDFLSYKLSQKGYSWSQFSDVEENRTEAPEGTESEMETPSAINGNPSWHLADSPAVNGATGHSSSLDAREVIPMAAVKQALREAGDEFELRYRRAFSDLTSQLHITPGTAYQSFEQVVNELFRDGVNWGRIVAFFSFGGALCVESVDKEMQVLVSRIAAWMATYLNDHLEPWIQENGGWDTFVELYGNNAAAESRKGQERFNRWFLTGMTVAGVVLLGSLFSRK
# Experiment: HiBiT based degradation assay
# Type: cell-based
# Conditions: HT1080 cells expressing HiBiT-BCL-XL; for Ymin (24 h) / Ymin (6 h): BCL-XL degradation normalized with DMSO control; for DC50: BCL-XL degradation
# Outline: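 This HiBiT degradation assay measured loss of BCL-XL in HT1080 cells that stably express an N-terminal HiBiT-BCL-XL fusion delivered by lentivirus. Cells were added to compound-spotted 384-well plates, and luminescence was read on a PHERAstar FSX reader. Signal was expressed relative to DMSO controls, curves were fitted by four-parameter logistic regression, and for hook-shaped curves the Ymin point served as the bottom plateau when calculating EC50.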
Structure (SMILES),Ymin (24 h),"DC50 (24 h, read-out: EC50 (24 h)) [nM]",Ymin (6 h),"DC50 (6 h, read-out: EC50 (6 h)) [nM]"
"Cc1cc(OCCCC2CCN(CC(=O)Nc3cccc4c(C5CCC(=O)NC5=O)nn(C)c34)CC2)ccc1-c1ccc(N2CCc3cccc(C(=O)Nc4nc5ccccc5s4)c3C2)nc1C(=O)O (stereo not drawn) [Compound 236, 6-(8-(Benzo[d]thiazol-2-ylcarbamoyl)-3,4-dihydroisoquinolin-2(1H)-yl)-3-(4-(3-(1-(2-((3-(2,6-dioxopiperidin-3-yl)-1-methyl-1H-indazol-7-yl)amino)-2-oxoethyl)piperidin-4-yl)propoxy)-2-methylphenyl)picolinic acid]",B (50% ≤ Ymin < 70%),< 100,B (50% ≤ Ymin < 70%),< 100
"Cc1c(Oc2ccc(CCCCN3CCN(c4ccc5c(C6CCC(=O)NC6=O)nn(C)c5c4)CC3)cc2)cccc1-c1ccc(N2CCc3cccc(C(=O)Nc4nc5ccccc5s4)c3C2)nc1C(=O)O (stereo not drawn) [Compound 163, 6-(8-(benzo[d]thiazol-2-ylcarbamoyl)-3,4-dihydroisoquinolin-2(1H)-yl)-3-(3-(4-(4-(4-(3-(2,6-dioxopiperidin-3-yl)-1-methyl-1H-indazol-6-yl)piperazin-1-yl)butyl)phenoxy)-2-methylphenyl)picolinic acid]",A (Ymin < 50%),< 100,,
"Cc1c(O[C@H]2CC[C@H](C[C@H](C)CN3CCN(c4cccc5c(C6CCC(=O)NC6=O)nn(C)c45)CC3)CC2)cccc1-c1ccc(N2CCc3cccc(C(=O)Nc4nc5ccccc5s4)c3C2)nc1C(=O)O (single isomer, unassigned) [Compound 284a]",A (Ymin < 50%),< 100,,
"Cc1c(OCCCC2CCN(C(C)(C)C(=O)Nc3ccc4c(C5CCC(=O)NC5=O)nn(C)c4c3)CC2)cccc1-c1ccc(N2CCc3cccc(C(=O)Nc4nc5ccccc5s4)c3C2)nc1C(=O)O (stereo not drawn) [Compound 166, 6-[8-(1,3-benzothiazol-2-ylcarbamoyl)-3,4-dihydro-1H-isoquinolin-2-yl]-3-[3-[3-[1-[2-[[3-(2,6-dioxo-3-piperidyl)-1-methyl-indazol-6-yl]amino]-1,1-dimethyl-2-oxo-ethyl]-4-piperidyl]propoxy]-2-methyl-phenyl]pyridine-2-carboxylic acid]",B (50% ≤ Ymin < 70%),100 to 1000,,
"Cc1c(OC[C@@H](C)CC2CCN(CC(=O)Nc3ccc4c(C5CCC(=O)NC5=O)nn(C)c4c3)CC2)cccc1-c1ccc(N2CCc3cccc(C(=O)Nc4nc5ccccc5s4)c3C2)nc1C(=O)O (single isomer, unassigned) [Compound 263b]",A (Ymin < 50%),< 100,,
"Cc1c(OCCCN2CCN(CC3CCN(c4cccc5c(C6CCC(=O)NC6=O)nn(C)c45)CC3)CC2)cccc1-c1ccc(N2CCc3cccc(C(=O)Nc4nc5ccccc5s4)c3C2)nc1C(=O)O (stereo not drawn) [Compound 221, 6-(8-(benzo[d]thiazol-2-ylcarbamoyl)-3,4-dihydroisoquinolin-2(1H)-yl)-3-(3-(3-(4-((1-(3-(2,6-dioxopiperidin-3-yl)-1-methyl-1H-indazol-7-yl)piperidin-4-yl)methyl)piperazin-1-yl)propoxy)-2-methylphenyl)picolinic acid]",A (Ymin < 50%),< 100,,
"Cc1c(OCC[C@@H]2CCC3(CCN(CC(=O)Nc4ccc5c(C6CCC(=O)NC6=O)nn(C)c5c4)CC3)C2)cccc1-c1ccc(N2CCc3cccc(C(=O)Nc4nc5ccccc5s4)c3C2)nc1C(=O)O (single isomer, unassigned) [Compound 272b, 6-(8-(benzo[d]thiazol-2-ylcarbamoyl)-3,4-dihydro-isoquinolin-2(1 h)-yl)-3-(3-(2-((2r)-8-(2-((3-(2,6-dioxopiperidin-3-yl)-1-methyl-1 h-indazol-6-yl)amino)-2-oxoethyl)-8-azaspiro[4.5]decan-2-yl)ethoxy)-2-methylphenyl)picolinic acid]",A (Ymin < 50%),< 100,,
"Cc1c(OCCCN2CCN(CC(=O)Nc3ccc4c(C5CCC(=O)NC5=O)nn(C)c4c3)[C@@H](C(F)(F)F)C2)cccc1-c1ccc(N2CCc3cccc(C(=O)Nc4nc5ccccc5s4)c3C2)nc1C(=O)O (stereo partly drawn) [Compound 187b, 6-(8-(benzo[d]thiazol-2-ylcarbamoyl)-3,4-dihydroisoquinolin-2(1H)-yl)-3-(3-(3-((3R)-4-(2-((3-(2,6-dioxopiperidin-3-yl)-1-methyl-1H-indazol-6-yl)amino)-2-oxoethyl)-3-(trifluoromethyl)piperazin-1-yl)propoxy)-2-methylphenyl)picolinic acid]",A (Ymin < 50%),< 100,B (50% ≤ Ymin < 70%),< 100
"Cc1c(OCCCC2CCN([C@H](C)C(=O)Nc3cccc4c(C5CCC(=O)NC5=O)nn(C)c34)CC2)cccc1-c1ccc(N2CCc3cccc(C(=O)Nc4nc5ccccc5s4)c3C2)nc1C(=O)O (stereo partly drawn) [Compound 216b, 6-(8-(benzo[d]thiazol-2-ylcarbamoyl)-3,4-dihydroisoquinolin-2(1H)-yl)-3-(3-(3-(1-((2R)-1-((3-(2,6-dioxopiperidin-3-yl)-1-methyl-1H-indazol-7-yl)amino)-1-oxopropan-2-yl)piperidin-4-yl)propoxy)-2-methylphenyl)picolinic acid]",B (50% ≤ Ymin < 70%),< 100,,
"Cc1c(-c2ccc(N3CCc4cccc(C(=O)Nc5nc6ccccc6s5)c4C3)nc2C(=O)NCCCCCC(=O)Nc2cccc3c(C4CCC(=O)NC4=O)nn(C)c23)cnn1CC12CC3CC(CC(C3)C1)C2 (stereo not drawn) [Compound 108, 2-(5-(1-(((3r,5r,7r)-adamantan-1-yl)methyl)-5-methyl-1H-pyrazol-4-yl)-6-((6-((3-(2,6-dioxopiperidin-3-yl)-1-methyl-1H-indazol-7-yl)amino)-6-oxohexyl)carbamoyl)pyridin-2-yl)-N-(benzo[d]thiazol-2-yl)-1,2,3,4-tetrahydroisoquinoline-8-carboxamide]",,,B (50% ≤ Ymin < 70%),< 100

# Second part, the molecule after the results:
Ymin (24 h),"DC50 (24 h, read-out: EC50 (24 h)) [nM]",Ymin (6 h),"DC50 (6 h, read-out: EC50 (6 h)) [nM]",Structure (SMILES)
A (Ymin < 50%),< 100,,,"Cc1c(O[C@H]2CC[C@@H](CCCN3CCN(c4ccc5c(C6CCC(=O)NC6=O)nn(C)c5c4)CC3)CC2)cccc1-c1ccc(N2CCc3cccc(C(=O)Nc4nc5ccccc5s4)c3C2)nc1C(=O)O (stereo partly drawn) [Compound 148b, 6-(8-(benzo[d]thiazol-2-ylcarbamoyl)-3,4-dihydroisoquinolin-2(1H)-yl)-3-(3-(((1r,4s)-4-(3-(4-(3-(2,6-dioxopiperidin-3-yl)-1-methyl-1H-indazol-6-yl)piperazin-1-yl)propyl)cyclohexyl)oxy)-2-methylphenyl)picolinic acid]"
A (Ymin < 50%),< 100,,,"Cc1c(O[C@H]2CC[C@H](C[C@H](C)CCN3CCN(c4ccc5c(C6CCC(=O)NC6=O)nn(C)c5c4)CC3)CC2)cccc1-c1ccc(N2CCc3cccc(C(=O)Nc4nc5ccccc5s4)c3C2)nc1C(=O)O (single isomer, unassigned) [Compound 307a]"
A (Ymin < 50%),< 100,,,"Cc1c(O[C@H]2CC[C@H](CCCC(=O)N3CCN(c4ccc5c(C6CCC(=O)NC6=O)nn(C)c5c4)CC3)CC2)cccc1-c1ccc(N2CCc3cccc(C(=O)Nc4nc5ccccc5s4)c3C2)nc1C(=O)O (stereo partly drawn) [Compound 227a, 6-(8-(benzo[d]thiazol-2-ylcarbamoyl)-3,4-dihydroisoquinolin-2(1H)-yl)-3-(3-(((1s,4r)-4-(4-(4-(3-(2,6-dioxopiperidin-3-yl)-1-methyl-1H-indazol-6-yl)piperazin-1-yl)-4-oxobutyl)cyclohexyl)oxy)-2-methylphenyl)picolinic acid]"
A (Ymin < 50%),< 100,,,"Cc1c(O[C@H]2CC[C@H](CCCCN3CCN(c4ccc5c(C6CCC(=O)NC6=O)nn(C)c5c4)CC3)CC2)cccc1-c1ccc(N2CCc3cccc(C(=O)Nc4nc5ccccc5s4)c3C2)nc1C(=O)O (stereo partly drawn) [Compound 161a, 6-(8-(benzo[d]thiazol-2-ylcarbamoyl)-3,4-dihydroisoquinolin-2(1H)-yl)-3-(3-(((1s,4r)-4-(4-(4-(3-(2,6-dioxopiperidin-3-yl)-1-methyl-1H-indazol-6-yl)piperazin-1-yl)butyl)cyclohexyl)oxy)-2-methylphenyl)picolinic acid]"
A (Ymin < 50%),< 100,,,"Cc1c(OCCC2CCN(CCCC3CCN(c4ccc5c(C6CCC(=O)NC6=O)nn(C)c5c4)CC3)CC2)cccc1-c1ccc(N2CCc3cccc(C(=O)Nc4nc5ccccc5s4)c3C2)nc1C(=O)O (stereo not drawn) [Compound 287, 6-[8-(1,3-benzothiazol-2-ylcarbamoyl)-3,4-dihydro-1H-isoquinolin-2-yl]-3-[3-[2-[1-[3-[1-[3-(2,6-dioxo-3-piperidyl)-1-methyl-indazol-6-yl]-4-piperidyl]propyl]-4-piperidyl]ethoxy]-2-methyl-phenyl]pyridine-2-carboxylic acid]"
B (50% ≤ Ymin < 70%),< 100,,,"Cc1c(O[C@H]2CC[C@H](CCCCN3CCN(c4ccc5c(C6CCC(=O)NC6=O)nn(C)c5c4)[C@@H](C(F)(F)F)C3)CC2)cccc1-c1ccc(N2CCc3cccc(C(=O)Nc4nc5ccccc5s4)c3C2)nc1C(=O)O (stereo partly drawn) [Compound 339a, 6-(8-(benzo[d]thiazol-2-ylcarbamoyl)-3,4-dihydroisoquinolin-2(1H)-yl)-3-(3-(((1s,4r)-4-(4-((3R)-4-(3-(2,6-dioxopiperidin-3-yl)-1-methyl-1H-indazol-6-yl)-3-(trifluoromethyl)piperazin-1-yl)butyl)cyclohexyl)oxy)-2-methylphenyl)picolinic acid]"
